In patent US9034645B2, “Methods of identifying inhibitors of gene silencing in mammalian cells” (Oregon Health & Science University, priority 2008, dated 2015):

How the values were obtained:
Assay type in all cases: cell-based, mouse
[1] = tested on: silenced HPRT allele in H3TG3 cells; experiment: Reactivation of silenced HPRT, mRNA by qRT-PCR; settings: 5 or 15 μM SFN for 24 hours, RNA 24 hours after exposure; compared with 300 nM 5-aza-dC (FIG. 4)
Protocol: Relative levels of HPRT mRNA were determined in H3TG3 cells exposed to 300 nM 5-Aza-dC, 5 μM SFN, or 15 μM SFN for 24 hours. RNA was collected after an additional 24 hours and quantitative real time PCR (qRT-PCR) was used to determine mRNA levels, which were set to 1.0 for untreated cells.
RNA levels instead of reactivation frequencies were used as the endpoint for this experiment.

[2] = tested on: silenced HPRT allele in H3TG3 cells; experiment: HPRT reversion frequency of TG resistant cells with silenced Ptet-HPRT (HAz selection); settings: 100 nM TSA and/or 300 nM 5-aza-dC for 24 hours, 24 hour recovery, HAz medium (FIG. 3)
Protocol: Reversion frequencies were determined for a cell line with a silenced HPRT allele after no treatment (Untreated), treatment with 300 nM 5-aza-2′-deoxycytidine (AzaC) for 24 hours, treatment with 100 nM trichostatin A (TSA) for 24 hours, or a combination of 5-Aza-dC and TSA at the same concentrations for 24 hours. Revertant cells were selected with medium containing hypoxanthine and azaserine.
TSA was therefore used as a probe to determine if histone deacetylation played a significant role in the silencing phenotype. […] For this experiment, 1×10^6 cells were plated in a T-75 flask and treated with 100 nM TSA for 24 hours. After an additional 24 hour recovery time, the cells were re-plated in 100 mm dishes (1×10^5 cells per dish) in HAz medium to select for cells that regained HPRT expression. […] For this experiment, the cells were treated identically to those used for the TSA experiment, except they were exposed to 300 nM 5-aza-dC instead.

[3] = tested on: Ptet-HPRT in HPRT9 cells; experiment: Inhibition of Dox-induced HPRT silencing (TG resistant clones); settings: 100 nM TSA or 300 nM 5-Aza-dC for the last 24 hours of 7 days 1 μM Dox; TG selection (FIG. 5)
Protocol: FIG. 5 is a series of digital images of dishes of TG resistant HPRT9 cells after various treatments. HPRT9 cells with Ptet-HPRT were exposed to 1 μM Dox for 7 days (Dox) to induce HPRT silencing. Some cells were also exposed 100 nM TSA (Dox+TSA) or 300 nM 5-Aza-dC (Dox+AzaC) on day 7 of Dox treatment. Control (Untreated) cells were not exposed to Dox, TSA, or 5-Aza-dC. 1×10^5 cells were plated per dish in TG medium and the dishes were stained after 12 days. The dark circles depict clones of cells that survived TG selection (TG resistant cells).
If so, silencing should be prevented by inhibiting histone deacetylation. To test this, experiments in which silencing is induced by exposure to Dox were repeated (see Example 2), but in this case the cells were exposed to TSA for the last 24 hours of Dox exposure.

[4] = tested on: BRCA1-HPRT construct (human BRCA1 promoter); experiment: Reversion of hypoxia-induced TG resistant clones containing BRCA1-HPRT; settings: for reversion / reactivation of hypoxia-induced BRCA1-HPRT TG resistant clones: TSA 300 nM (Table 3, FIG. 8), 5-Aza-dC concentration not given; for TSA-Induced Reversion Frequency: TSA 300 nM
Protocol: FIG. 8 is a bar graph showing reactivation frequency of BSH8 TG resistant clones treated with 300 nM TSA for 16 hours or in the absence of TSA (untreated).
(§1) To confirm that silencing (as opposed to mutation) was induced by hypoxia exposure, several BRCA1-HRPT TG resistant clones induced by hypoxia were expanded and tested to determine if they could yield revertant cells after exposure to TSA (300 nM) as presented in Example 3 for cells with silenced Ptet-HPRT constructs. […] Consistent with that result, HPRT mRNA was reduced in the TG resistant clones and restored in TSA-induced revertants.

[5] = tested on: BRCA1-HPRT in BSH8 cells; experiment: Inhibition of hypoxia-induced silencing of BRCA1-HPRT (TG resistance frequency); settings: hypoxia two weeks, TSA 24 hours prior to TG selection (FIG. 9)
Protocol: FIG. 9 is a bar graph showing TG resistance frequency for BSH8 cells exposed to normoxia or hypoxia for two weeks and then selected under normoxic conditions with TG. An aliquot of the hypoxia exposed cells was treated with TSA for 24 hours (hypoxia+TSA) prior to TG selection.
Two BRCA1-HPRT cell lines obtained with this approach (BSH2 and BSH8) were exposed to hypoxic conditions (growth in an atmosphere of about 95% nitrogen and 5% oxygen) for two weeks and then exposed to 2.5 μg/ml TG under hypoxic conditions for two additional weeks to select for TG resistant cells. […] Thus, the resistance phenotype became independent of hypoxia.
as §1

[6] = tested on: silenced Aprt allele in D3, D7, D3S1 cells; experiment: Aprt mRNA expression in cell lines with silenced Aprt (qRT-PCR); settings: for Aprt expression after treatment / Aprt expression / mRNA levels after treatment: overnight 3 μM 5-aza-dC or 300 nM TSA, 24 hours recovery (FIG. 12); for Aprt expression / mRNA levels after treatment: D7 cell line; for increase of Aprt mRNA levels as compared to untreated cells: 300 nM TSA
Protocol: FIG. 12 is a bar graph showing relative Aprt mRNA expression in parental cells with active Aprt expression (H22) and DAP-resistant cell lines with silenced Aprt expression (D7, D3, and D3S1) in untreated cells and cells treated with 3 μM 5-aza-dC or 300 nM TSA. Results are the average of triplicate reactions with error bars indicating the standard deviation.
Total RNA was isolated from cell cultures with the RNeasy® Mini Kit (Qiagen, Valencia, Calif.) according to the manufacturer's instructions. Total RNA samples were converted to cDNA using Quantitect® Reverse Transcription Kit (Qiagen, Valencia, Calif.) with removal of genomic DNA contamination. 100 ng cDNA was used as input in subsequent quantitative-PCR analysis for either Aprt amplification across the exon 2-3 splice site with the sense primer qAprt-F 5′-CTCTTGGCCAGTCACCTGAAG-3′ (SEQ ID NO: 4), the antisense primer qAprt-R 5′-TCTAGACCTGCGATGTAGTCGATCT-3′ (SEQ ID NO: 5) and the TaqMan probe 5′-FAM-CAC GCA CAG CGG C-MGB-3′ (SEQ ID NO: 6) or Gapdh (Mouse TaqMan Endogenous Control, Applied Biosystems) with iQ Supermix (Bio-Rad) and a Bio-Rad iCycler.
Cells were treated overnight (about 16 hours) with media containing 300 nM TSA (Wako USA, Richmond, Va.) to inhibit histone deacetylation, 3 μM 5-aza-dC (Sigma-Aldrich, St. Louis, Mo.) to inhibit DNA methylation, or the combination of 300 nM TSA and 3 μM 5-aza-dC. Cells were allowed to recover 24 hours in DMEM after drug treatment before harvesting for RNA purification.

[7] = tested on: reactivated HPRT in H4-derived clones; experiment: Re-silencing frequency of reactivated Ptet-HPRT clones (TG selection); settings: overnight 300 nM 5-aza-dC before TG selection (FIG. 15)
Protocol: FIG. 15 is a bar graph showing inactivation frequency of H4-derived clones with silenced and reactivated HPRT expression after overnight treatment with vehicle (Untreated), 300 nM 5-aza-dC (Aza-dC) or 100 nM TSA (TSA) before selecting against HPRT activity with TG. Frequencies represent the fraction of cell colonies surviving after two weeks of TG selection.
A DIF6 derived cell line expressing HPRT under the control of the Ptet system was established as described in Example 1. Gene silencing was induced following repression of HPRT expression in the presence of Dox and spontaneous reactivant cell lines that grew well in AzHx medium were isolated. Re-silencing frequency was measured in the presence of the DNA methylation inhibitor 5-aza-dC or the HDAC inhibitor TSA.

[8] = tested on: Ptet-HPRT; experiment: Induction of silencing via repression of Ptet-HPRT by Dox (TG resistance frequency); settings: 1 μM Dox 7 days, then TG and puromycin selection without Dox
Protocol: FIG. 2 is a bar graph showing silencing frequency as a function of time of Dox exposure. HPRT 3 cells with Ptet-HPRT were exposed to 1 μM Dox for the times indicated before being released from Dox and selected with 6-thioguanine (TG). TG resistance frequencies are plotted. No TG resistant clones were identified after one or two weeks of growth in medium without Dox. The HPRT 3 cell line was created by inserting the Ptet-HPRT construct and the tet-responsive transcription activator construct into the genome of a mouse cell line termed DIF6.
To determine if gene repression could induce silencing, three cell lines expressing HPRT under control of the Ptet promoter (Ptet-HPRT) were exposed to Dox for 7 days and then selected with TG in the absence of Dox. These cells lines were chosen because 1) each gave few or no spontaneous TG resistant clones and 2) Ptet-HPRT was integrated near the bacterial puromycin (pur) selectable gene, which allowed puromycin selection to be used to prevent deletion of Ptet-HPRT. […] For this experiment, 1×10^6 cells were exposed to 1 μM Dox for 7 days, the Dox was removed from the medium, the cells re-plated in 100 mm dishes at a density of 1×10^5 cells per dish and exposed to TG (5 μg/ml) and puromycin (1.5 μg/ml).

[9] = tested on: Ptet-HPRT; experiment: HPRT mRNA by qRT-PCR in Ptet-HPRT cells exposed to Dox; settings: after removal of Dox from the medium
Source text: The cell lines described in Example 1 were used to determine if gene silencing can be induced by transient reduction of gene expression. […] In other words, Dox can reduce but not eliminate gene expression. HPRT mRNA was restored to the original levels observed in the absence of Dox within 2 days after Dox was removed from the medium.

[10] = tested on: Ptet-HPRT in HPRT3 cells; experiment: Relative HPRT expression in Dox exposed cells treated with TSA (qRT-PCR); settings: 1 μM Dox 7 days, TSA on day 7 (FIG. 6)
Protocol: FIG. 6 is a bar graph showing relative HPRT expression after Dox exposed HPRT3 cells were treated with TSA. The HPRT3 cells expressing Ptet-HPRT were treated with 1 μM Dox for 6 days and on day 7 some cells were exposed to both Dox and TSA (at concentrations shown). RNA was collected at the end of the 7th day and assayed for HPRT levels with qRT-PCR.

[11] = tested on: BRCA1-HPRT; experiment: HPRT mRNA in BRCA1-HPRT transfectants exposed to CoCl2; settings: 50 μM or 100 μM CoCl2 for two weeks (FIG. 10A)
Protocol: FIG. 10A is a bar graph showing HPRT mRNA levels (normalized to GAPDH) in BRCA1-HPRT transfectants exposed to 50 μM or 100 μM CoCl2 for two weeks.
(§2) BRCA1-HPRT and MLH1-HPRT cell lines as described in Example 5 were exposed to CoCl2 for two weeks, followed by selection of TG resistant clones. […] Expression from the MLH1 promoter was also repressed by exposure to CoCl2.

[12] = tested on: BRCA1-HPRT; experiment: TG resistance frequency of BRCA1-HPRT transfectants exposed to CoCl2; settings: 50 μM or 100 μM CoCl2 for two weeks, then TG selection (FIG. 10B)
Protocol: FIG. 10B is a bar graph showing TG resistance frequency for BRCA1-HPRT transfectants exposed to 50 μM or 100 μM CoCl2 for two weeks, followed by TG selection.
as §2

[13] = tested on: MLH1 promoter (MLH1-HPRT); experiment: Expression from the MLH1 promoter in MLH1-HPRT cells exposed to CoCl2; settings: CoCl2 exposure
Source text: as §2

C[S+]([O-])CCCCN=C=S (centres unmarked) [SFN, sulforaphane]
reactivation of silenced HPRT allele (RNA levels) [1]: reactivate the silenced HPRT allele in a dose dependent manner, and at levels greater than that for exposure with 5-aza-dC

Nc1ncn([C@H]2C[C@H](O)[C@@H](CO)O2)c(=O)n1 [5-aza-dC, 5-aza-2′-deoxycytidine]
frequency of revertant cells [2]: induced revertant cells | induction of cells with silenced HPRT alleles [3]: did not inhibit | reversion / reactivation of hypoxia-induced BRCA1-HPRT TG resistant clones [4]: did not reactivate the silenced clones | hypoxia-induced silencing of the BRCA1 promoter [5]: did not inhibit the induction of silencing | Aprt expression after treatment ([6]; D3S1 cell line): reactivated expression | Aprt expression after treatment ([6]; D3 cell line): reactivated expression | Aprt expression / mRNA levels after treatment [6]: did not alter expression | re-silencing frequency [7]: essentially unchanged

C[C@H]1c2cccc(O)c2C(=O)C2=C(O)[C@]3(O)C(=O)C(C(N)=O)=C(O)[C@@H](N(C)C)[C@@H]3[C@@H](O)[C@@H]21 [Dox, doxycycline]
Silencing Frequency ([8]; HPRT 1 cell line): 9.4 × 10^−3 | Silencing Frequency ([8]; HPRT 3 cell line): 2.1 × 10^−4 | Silencing Frequency ([8]; HPRT 4 cell line): 1.6 × 10^−4 | time to restoration of HPRT mRNA to original levels after Dox was removed [9]: ≤ 2 days

CC(/C=C/C(=O)NO)=C\[C@@H](C)C(=O)c1ccc(N(C)C)cc1 [TSA, trichostatin A]
frequency of revertant cells [2]: increased | induction of cells with silenced HPRT alleles [3]: significantly inhibited | HPRT expression in the presence of Dox [10]: restored a level of HPRT expression | TSA-Induced Reversion Frequency ([4]; TG cell line BSH8TG22): 6.9 × 10^−4 | TSA-Induced Reversion Frequency ([4]; TG cell line BSH8TG23): 1.0 × 10^−4 | reversion / reactivation of hypoxia-induced BRCA1-HPRT TG resistant clones [4]: induced revertant cells | hypoxia-induced silencing of the BRCA1 promoter [5]: inhibited hypoxia-induced silencing | increase of Aprt mRNA levels as compared to untreated cells ([6]; D3S1 cell line): 8 fold | increase of Aprt mRNA levels as compared to untreated cells ([6]; D3 cell line): 1.5 fold | Aprt expression / mRNA levels after treatment [6]: no affect

[Cl][Co][Cl] [CoCl2, cobalt chloride]
BRCA1-HPRT expression [11]: repressed in a dose-dependent manner | TG-resistant clones [12]: only arose in BRCA1-HPRT cells exposed to 100 μM CoCl2 | Expression from the MLH1 promoter [13]: repressed
